pIC50: −log10 of the molar value.
Experiments:
FGFR3 [1] = molecular target: T1, FGFR3 (Homo sapiens (Human), UniProt P22607); assay: FGFR Enzyme Activity Assay (LanthaScreen TR-FRET), FGFR3; format: biochemical; conditions: 25 μM ATP, 10 minute incubation; read-out: FGFR3 Enz FRET IC50
Protocol: FGFR3 kinase activity was measured by the Invitrogen LanthaScreen™ Assay technology which directly measures the amount of substrate phosphorylation by TR-FRET using a flourescently-labeled peptide and Europium-labeled antibody. Briefly, 750 pM N-terminal GST-HIS6 fusion protein with a 3C cleavage site recombinant human FGFR3 (amino acids R397-T806) (ProQinase Cat. No. 1068-0000-1) was incubated with 100 nM Alexa Fluor® 647-Poly-GT Peptide Substrate (Life Technologies Cat. No. PV5836) and 25 μM ATP along with test compound in a buffer consisting of 250 mM HEPES, 25 mM MgCl2, 0.05% TritonX-100, pH 7.5, and 2% DMSO. Compounds were typically prepared in a threefold serial dilution in DMSO and added to the assay to give the appropriate final concentration. After a 10 minute incubation at 22° C., an equal volume of 2 nM LanthaScreen® Eu-PY20 Antibody (Life Technologies Cat. No. PV5691) and 10 mM EDTA were added to quench the kinase reaction and start the detection reaction. After an additional 60 minute incubation at 22° C., the reaction was measured using a PerkinElmer EnVision multimode plate reader via TR-FRET dual wavelength detection, and the percent of control (POC) calculated using a ratiometric emission factor. 100 POC was determined using no test compounds and 0 POC was determined using no enzyme. The POC values were fit to a 4-parameter logistic curve as a function of the concentration of the compound, and the IC50 value is the point where the curve crosses 50 POC.
Target sequence in this assay (P22607 397-806): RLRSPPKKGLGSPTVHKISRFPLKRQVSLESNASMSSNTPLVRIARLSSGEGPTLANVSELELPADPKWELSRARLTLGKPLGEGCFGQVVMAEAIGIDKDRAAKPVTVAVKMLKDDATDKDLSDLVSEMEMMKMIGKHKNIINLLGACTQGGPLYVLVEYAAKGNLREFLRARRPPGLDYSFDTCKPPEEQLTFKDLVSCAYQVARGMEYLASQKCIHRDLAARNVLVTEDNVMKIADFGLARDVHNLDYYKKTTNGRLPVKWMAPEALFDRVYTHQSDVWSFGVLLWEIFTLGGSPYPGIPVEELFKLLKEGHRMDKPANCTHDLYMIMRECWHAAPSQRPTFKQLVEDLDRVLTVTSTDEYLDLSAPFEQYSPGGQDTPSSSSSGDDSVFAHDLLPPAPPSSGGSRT

FGFR3 [2] = molecular target: T1, FGFR3; assay: LC/MS FGFR3 kobs assay (covalent modification); format: biochemical; conditions: 500 nM FGFR3, 3 μM compound
Protocol: The LC/MS FGFR1 and FGFR3 kobs assays were conducted as follows. 500 nM FGFR1 (Array BioPharma construct p1702; SEQ ID NO: 1, amino acids 458-765) or FGFR3 (Array BioPharma construct p1700; SEQ ID NO: 5, amino acids 449-759) were incubated with 3 μM compound in 25 mM HEPES (4-(2-hydroxyethyl)-1-piperazineethanesulfonic acid), pH 7.4, 5 mM MgCl2, 150 mM NaCl, 0.5 mM TCEP (tris(2-carboxyethyl) phosphine), and 2% DMSO in a total volume of 20 μL. At each time point, the reaction was quenched with 20 μL of 0.4% formic acid. The extent of protein modification by each compound was determined by LC/MS on an Agilent Technologies 6520 Q-TOF LC/MS. Protein signals were then automatically deconvoluted using Agilent Masshunter software. Deconvoluted mass signals were exported to Tibco Spotfire data analysis program for further processing and normalization.
Data analysis included five steps. First, the signals for the “DMSO Controls” were analyzed to determine the percent of signal associated with unmodified FGFR1 or FGFR3 at each time point. Next, the percent of the signal associated with the covalent modification was determined. Third, the average nonmodified “DMSO Control” signal was used to normalize the modified protein signals at each time point. The percent of unmodified protein was fit to an exponential decay model where A0 is the Percent Unmodified at the start of the reaction, and kobs is the observed rate constant over the time period.
Target sequence in this assay (P22607 449-759): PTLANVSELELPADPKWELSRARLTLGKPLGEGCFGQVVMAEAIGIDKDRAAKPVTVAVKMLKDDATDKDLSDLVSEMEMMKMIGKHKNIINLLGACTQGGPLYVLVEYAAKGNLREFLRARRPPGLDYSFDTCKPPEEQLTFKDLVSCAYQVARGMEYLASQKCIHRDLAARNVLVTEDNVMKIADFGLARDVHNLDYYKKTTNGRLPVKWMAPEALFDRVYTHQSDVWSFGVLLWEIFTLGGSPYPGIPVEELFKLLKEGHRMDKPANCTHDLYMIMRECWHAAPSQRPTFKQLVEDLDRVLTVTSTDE

phosphorylated FGFR3 = phosphorylated FGFR3 (Homo sapiens (Human), UniProt P22607); assay: FGFR Enzyme Binding Assay (HTRF tracer displacement), FGFR3; conditions: 5 nM phosphorylated FGFR3, 60 minute incubation at 22° C.; read-out: FGFR3 Enz Binding IC50
phosphorylated FGFR3, sequence (P22607 449-759): as above
Protocol: The potency of compounds inhibiting human isoforms of FGFR kinase was determined using Life Technologies' Homogeneous Time Resolved Fluorescence (HTRF)-based binding assay technology. An incubation was conducted with either 5 nM dephosphorylated FGFR1 (Array Biopharma, p1702; SEQ ID NO: 1, amino acids 458 to 765, dephosphorylated by co-expression with PTP1b (protein tyrosine phosphatase 1B)), 5 nM dephosphorylated FGFR2 (Life Technologies, Cat. No. PV4106 that had been dephosphorylated with Lambda protein phosphatase (New England Biolabs, cat #P0753)) or 5 nM phosphorylated FGFR3 (Array Biopharma, p1836; SEQ ID NO: 5, amino acids 449 to 759), 50 nM Kinase Tracer 236 (Life Technologies Cat. No. PR9078A), 2 nM Biotin-anti-6HIS (Life Technologies Cat. No. PV6090) and 2 nM Europium-Streptavidin (Life Technologies Cat. No. PV6025) along with test compound in a buffer consisting of 50 mM HEPES ((4-(2-hydroxyethyl)-1-piperazineethanesulfonic acid, pH 7.5), 5 mM MgCl2, 0.005% Triton X-100, 1 mM DTT, 1 mM NaVO4 and 2% DMSO in a final volume of 12 μL Compounds were typically prepared as a 3-fold or 4-fold serial dilution in DMSO and added to the assay to give the appropriate final concentration. After a 60 minute incubation at 22° C., the extent of tracer displacement was determined using a PerkinElmer EnVision multimode plate reader via HTRF dual wavelength detection, and the percent of control (POC) was calculated using a ratiometric emission factor. One hundred POC was determined using no test compound, and 0 POC was determined in the presence of 1 μM of an appropriate control inhibitor. A 4-parameter logistic curve was fit to the POC values as a function of the concentration of compound, and the IC50 value was the point where the best-fit curve crossed 50 POC.

[3] = molecular target: recombinant human FGFR1 catalytic domain (Homo sapiens (Human), UniProt P11362); assay: FGFR Enzyme Activity Assay (LanthaScreen TR-FRET), FGFR1; format: biochemical; conditions: 15 μM ATP, 20 minutes incubation; read-out: FGFR1 Enz FRET IC50
recombinant human FGFR1 catalytic domain, sequence (P11362 other isoform, or with tags, fused parts or gaps): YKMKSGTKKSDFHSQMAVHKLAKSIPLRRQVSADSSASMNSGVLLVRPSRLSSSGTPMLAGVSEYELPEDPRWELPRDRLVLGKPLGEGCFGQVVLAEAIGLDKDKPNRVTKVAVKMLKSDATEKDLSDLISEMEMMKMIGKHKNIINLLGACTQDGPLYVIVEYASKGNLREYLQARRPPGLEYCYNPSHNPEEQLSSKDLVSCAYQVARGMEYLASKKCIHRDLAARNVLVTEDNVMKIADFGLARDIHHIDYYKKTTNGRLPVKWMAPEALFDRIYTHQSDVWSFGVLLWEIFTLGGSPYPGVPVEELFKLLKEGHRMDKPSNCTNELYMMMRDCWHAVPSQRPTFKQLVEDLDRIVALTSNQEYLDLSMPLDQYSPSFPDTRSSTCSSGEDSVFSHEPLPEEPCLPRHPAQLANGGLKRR
Protocol: FGFR1 kinase activity was measured by the Invitrogen LanthaScreen™ Assay technology which directly measures the amount of substrate phosphorylation by Time-resolved fluorescence energy transfer (TR-FRET) using a flourescently-labeled peptide and Europium-labeled antibody. Briefly, 200 pM His-tagged recombinant human FGFR1 catalytic domain (amino acids 308-731) (Life Technologies Cat. No. PR4660A) was incubated with 100 nM Alexa Fluor® 647-Poly-GT Peptide Substrate (Life Technologies Cat. No. PV5836) and 15 μM ATP along with test compound in a buffer consisting of 250 mM HEPES, 25 mM MgCl2, 0.05% TritonX-100, pH 7.5, and 2% DMSO. Compounds were typically prepared in a threefold serial dilution in DMSO and added to the assay to give the appropriate final concentration. After a 20 minutes incubation at 22° C., an equal volume of 2 nM LanthaScreen® Eu-PY20 Antibody (Life Technologies Cat. No. PV5691) and 10 mM EDTA was added to quench the kinase reaction and start the detection reaction. After an additional 60 minute incubation at 22° C., the reaction was measured using a PerkinElmer EnVision multimode plate reader via TR-FRET dual wavelength detection, and the percent of control (POC) calculated using a ratiometric emission factor. 100 POC was determined using no test compounds and 0 POC was determined using no enzyme. The POC values were fit to a 4-parameter logistic curve as a function of the concentration of the compound, and the IC50 value is the point where the curve crosses 50 POC.

Row | Compound | pIC50 (FGFR3 [1]) | FGFR3 Enz kobs (FGFR3 [2]) [min⁻¹] | pIC50 (phosphorylated FGFR3) | pIC50 [3]
1 | COc1cc(Nc2ccc3ncc(-c4ccc(N5CCN(C(=O)C6(F)CN(C(=O)/C=C/CN(C)C)C6)CC5)nc4C)nc3c2)cc(OC)c1 [Example 13, (E)-1-(3-(4-(5-(7-((3,5-dimethoxyphenyl)amino)-quinoxalin-2-yl)-6-methylpyridin-2-yl)-piperazine-1-carbonyl)-3-fluoroazetidin-1-yl)-4-(dimethylamino)but-2-en-1-one] | 5.74 | 0.02606 | 6.47 | 5.67
2 | C=CC(=O)N1CC(F)(C(=O)N2CCC(n3cc(-c4cnc5ccc(Nc6cc(OC)cc(OC)c6)cc5n4)cn3)CC2)C1 [Example 4, 1-(3-(4-(4-(7-((3,5-dimethoxyphenyl)amino)-quinoxalin-2-yl)-1H-pyrazol-1-yl)piperidine-1-carbonyl)-3-fluoro-azetidin-1-yl)prop-2-en-1-one] | 8.00 | 0.03901 | 8.52 | 7.05
3 | C=CC(=O)N1CC(CN2CCC(n3cc(-c4cnc5ccc(Nc6cc(OC)cc(OC)c6)cc5n4)cn3)CC2)C1 [Example 30, 1-(3-((4-(4-(7-((3,5-dimethoxyphenyl)amino)quinoxalin-2-yl)-1H-pyrazol-1-yl)piperidin-1-yl)methyl)azetidin-1-yl)prop-2-en-1-one] | 7.59 | 0.01591 | 8.52 | 6.83
4 | COc1cc(Nc2ccc3ncc(-c4ccc(N5CCN(C(=O)C6CN(C(=O)/C=C/CN(C)C)C6)CC5)nc4)nc3c2)cc(OC)c1 [Example 6, (E)-1-(3-(4-(5-(7-((3,5-dimethoxyphenyl)amino)-quinoxalin-2-yl)pyridin-2-yl)piperazine-1-carbonyl)azetidin-1-yl)-4-(dimethylamino)but-2-en-1-one] | 6.79 | 0.04816 | 8.05 | 6.67
5 | COc1cc(Nc2ccc3ncc(-c4cnn([C@@H]5CCN(C(=O)C6(F)CN(C(=O)/C=C/CN(C)C)C6)C5)c4)nc3c2)cc(OC)c1 [Example 19, (R,E)-1-(3-(3-(4-(7-((3,5-dimethoxyphenyl)amino)-quinoxalin-2-yl)-1H-pyrazol-1-yl)pyrrolidine-1-carbonyl)-3-fluoro-azetidin-1-yl)-4-(dimethyl-amino)but-2-en-1-one] | 7.30 | 0.03902 | 8.40 | 6.54
6 | C=CC(=O)N1CC(C(=O)N2CCN(c3cccc(-c4cnc5ccc(Nc6cc(OC)cc(OC)c6)cc5n4)c3)CC2)C1 [Example 25, 1-(3-(4-(3-(7-((3,5-dimethoxyphenyl)amino)-quinoxalin-2-yl)phenyl)-piperazine-1-carbonyl)-azetidin-1-yl)prop-2-en-1-one] | 6.32 | 0.00369 | 6.49 | 5.75
7 | COc1cc(Nc2ccc3ncc(-c4cnn(C5CCN(C(=O)C6CN(C(=O)/C=C/CN(C)C)C6)CC5)c4)nc3c2)cc(OC)c1 [Example 9, (E)-1-(3-(4-(4-(7-((3,5-dimethoxyphenyl)amino)-quinoxalin-2-yl)-1H-pyrazol-1-yl)piperidine-1-carbonyl)azetidin-1-yl)-4-(dimethylamino)but-2-en-1-one] | 7.64 | 0.02139 | 8.70 | 7.54
8 | COc1cc(Nc2ccc3ncc(-c4c(C)nn(C5CCN(C(=O)C6(F)CN(C(=O)/C=C/CN(C)C)C6)CC5)c4C)nc3c2)cc(OC)c1 [Example 23, (E)-1-(3-(4-(4-(7-((3,5-dimethoxyphenyl)amino)-quinoxalin-2-yl)-3,5-dimethyl-1H-pyrazol-1-yl)piperidine-1-carbonyl)-3-fluoroazetidin-1-yl)-4-(dimethylamino)but-2-en-1-one] | 6.01 | 0.07588 | 7.89 | 5.30
9 | COc1cc(Nc2ccc3ncc(-c4cnn([C@@H]5CCN(C(=O)C6CN(C(=O)/C=C/CN(C)C)C6)C5)c4)nc3c2)cc(OC)c1 [Example 20, (R,E)-1-(3-(3-(4-(7-((3,5-dimethoxyphenyl)amino)-quinoxalin-2-yl)-1H-pyrazol-1-yl)pyrrolidine-1-carbonyl)azetidin-1-yl)-4-(dimethylamino)but-2-en-1-one] | 7.38 | 0.00892 | 8.30 | 6.71

Source: patent US12351571B2, “Substituted quinoxaline compounds as inhibitors of FGFR tyrosine kinases” (ARRAY BIOPHARMA INC., priority 2018, dated 2025)
